The record followed here is US7410767B1, “HLA-E binding” (Isis Innovation Limited, priority 1997, dated 2008).

The experiment deals with HLA-E (Homo sapiens, UniProt P13747, G128R). Kind of experiment: in vitro peptide binding assay to HLA-E. From the text:
Whatever form of HLA-E is used, a suitable peptide for binding in the HLA-E peptide groove will be required. […] Other peptides which bind to HLA-E may be used, for example peptides from viral proteins which may be the same as or different to MHC class I leader sequence peptides. […] A suitable assay for identifying synthetic peptides which bind to HLA-E is described in Braud et al 1997 Eur. J. Immunol. 27:1164-1169.

The mark [1] stands for this setting: in vitro peptide binding assay, ratio of optical densities, read-out: Concentration of peptide required to obtain 50% of binding to HLA-E.

Read-outs that look alike come from different tables or passages of the source. No end group written: not given here.

`CSCC[C@H](NC(=O)[C@@H](N)C(C)C)C(=O)N[C@@H](C)C(=O)N1CCC[C@H]1C(=O)N[C@@H](CCCNC(=N)N)C(=O)N[C@H](C(=O)N[C@@H](CC(C)C)C(=O)N[C@@H](CC(C)C)C(=O)N[C@@H](CC(C)C)C(=O)O)[C@@H](C)O` returned an EC50 of 0.3 µM.

Take `CSCC[C@H](NC(=O)[C@@H](N)C(C)C)C(=O)N[C@@H](C)C(=O)N1CCC[C@H]1C(=O)N[C@@H](CCCNC(=N)N)C(=O)N[C@H](C(=O)N[C@@H](CC(C)C)C(=O)N[C@H](C(=O)N[C@@H](CC(C)C)C(=O)O)C(C)C)[C@@H](C)O`: under setting [1], the EC50 turned out to be 0.06 µM.

For `CSCC[C@H](NC(=O)[C@@H](N)C(C)C)C(=O)N[C@@H](C)C(=O)N1CCC[C@H]1C(=O)N[C@@H](CCCNC(=N)N)C(=O)N[C@H](C(=O)N[C@H](C(=O)N[C@@H](CC(C)C)C(=O)N[C@@H](CC(C)C)C(=O)O)C(C)C)[C@@H](C)O`, the EC50 under setting [1] was determined as 0.06 µM.

As for `CC(C)C[C@H](NC(=O)[C@H](CC(C)C)NC(=O)[C@@H](NC(=O)[C@@H](NC(=O)[C@H](CCCNC(=N)N)NC(=O)[C@@H]1CCCN1C(=O)[C@H](C)NC(=O)[C@@H](NC(=O)[C@@H](N)C(C)C)[C@@H](C)O)[C@@H](C)O)C(C)C)C(=O)O`, under setting [1], the EC50 was > 100 µM.

In the case of VTAPRTLLL, under setting [1], the EC50 is > 100 µM.
